Legend:
MCF-7 [1] = experiment: MTT cytotoxicity assay, MCF-7; assay type: cell-based, human; conditions: for IC50: Homo sapiens, MCF7, MTT assay, mean of three experiments ± SE, read-out: IC50 MCF-7; for Selectivity index (SI) MCF-7: relative to MCF-10A normal cells
Experimental: (§1) The 96-well plate was incubated for 24 h before the MTT assay. […] Cells were cultured using DMEM supplemented with 10% foetal bovine serum, 10 µg/mL insulin and 1% penicillin–streptomycin. Reconstituted MTT (10%) was added and incubated for 2 h. Formazan crystals were dissolved by the MTT solubilizing solution after incubation. Absorbance was measured at a wavelength of 570 nm[28].

HCT-116 [2] = experiment: MTT cytotoxicity assay, HCT-116; assay type: cell-based, human; conditions: for IC50: Homo sapiens, HCT-116, MTT assay, mean of three experiments ± SE, read-out: IC50 HCT-116; for Selectivity index (SI) HCT-116: relative to MCF-10A normal cells
Experimental: as §1

HepG-2 [3] = experiment: MTT cytotoxicity assay, HepG-2; assay type: cell-based, human; conditions: for IC50: Homo sapiens, HepG2, MTT assay, mean of three experiments ± SE, read-out: IC50 HepG-2
Experimental: as §1

MDA-MB-231 [4] = experiment: MTT cytotoxicity assay, MDA-MB-231; assay type: cell-based, human; conditions: for IC50: Homo sapiens, MDA-MB-231, MTT assay, mean of three experiments ± SE, read-out: IC50 MDA-MB-231; for Selectivity index (SI) MDA-MB-231: relative to MCF-10A normal cells
Experimental: as §1

EGFR = biological target: T1, EGFR (Homo sapiens, UniProt P00533); experiment: EGFR kinase assay; assay type: biochemical; conditions: EGFR-TK inhibitory assay; means ± SE, three repeats
T1 construct: purchased Invitrogen
Experimental: An ATP solution and a kinase/peptide mixture were developed just before use. […] Then, […] of the prepared solution was added to each well. The plate was incubated for 1 h and determined by an ELISA Reader (PerkinElmer, USA). Curve fitting using Graph Pad Prism 5 was constructed. Each experiment was repeated three times. IC50 was represented as means ± SE.

[5] = tested on: MCF-10A normal breast cell line; experiment: MTT cytotoxicity assay, MCF-10A normal cells; assay type: cell-based; conditions: Homo sapiens
Experimental: as §1

MCF-7 [6] = experiment: Radiosensitizing evaluation, MCF-7; assay type: cell-based; conditions: Homo sapiens, MCF7, light or radiation study, 48 h; single dose of 8 Gy gamma radiation; measured two days after irradiation
Experimental: (§2) Irradiation was performed at the National Centre for Radiation Research and Technology (NCRRT), Egyptian Atomic Energy Authority, using Gamma cell-40 (^137Cs) source. The promising compounds 5 and 6 were selected to be re-evaluated for in vitro cytotoxic activity after the cells containing the compounds were gamma-irradiated at a dose level of 8 Gy with a dose rate of 0.758 rad/s for 17.59 min. Cytotoxicity was measured two days after irradiation. The IC50 of the tested compounds is calculated using GraphPad Prism 5.

HCT-116 [7] = experiment: Radiosensitizing evaluation, HCT-116; assay type: cell-based; conditions: Homo sapiens, HCT-116, light or radiation study, 48 h; single dose of 8 Gy gamma radiation; measured two days after irradiation
Experimental: as §2

MDA-MB-231 [8] = experiment: Radiosensitizing evaluation, MDA-MB-231; assay type: cell-based; conditions: Homo sapiens, MDA-MB-231, light or radiation study, 48 h; single dose of 8 Gy gamma radiation; measured two days after irradiation
Experimental: as §2

HepG-2 [9] = experiment: Radiosensitizing evaluation, HepG-2; assay type: cell-based; conditions: Homo sapiens, HepG2, light or radiation study, 48 h; single dose of 8 Gy gamma radiation; measured two days after irradiation
Experimental: as §2

[10] = tested on: MDA-MB-231, MCF-7, HepG-2 and HCT-116 human cancer cell lines; experiment: MTT assay, panel of cancer cell lines; assay type: cell-based; conditions: range over MDA-MB-231, MCF-7, HepG-2, HCT-116, read-out: IC50 against all the cell lines
Experimental: as §1

MDA-MB-231 cells [11] = experiment: Apoptotic assay, Annexin V-FITC/PI; assay type: cell-based, human; conditions: 0.76 μM, 24 h
Experimental: Cells were prepared as previously mentioned. Treatment of cells (10^5) with Annexin V-FITC and propidium iodide (PI) was by apoptosis detection kit [BD Biosciences, San Jose, CA]. The binding of Annexin V-FITC and PI was examined using flow cytometry FACScalibur (BD Biosciences, San Jose, CA). CellQuest software was used for performing quadrant analysis of co-ordinate dot plots.

[12] = tested on: MDA-MB-231, MCF-7, HCT-116, HepG-2; experiment: Radiosensitizing evaluation, all tested cell lines; assay type: cell-based; conditions: Homo sapiens, light or radiation study; single dose of 8 Gy gamma radiation; read-out: IC50 on all the tested cell lines after irradiation
Experimental: as §2

MDA-MB-231 cells [13] = experiment: Cell cycle analysis by flow cytometry (PI); assay type: cell-based, human; conditions: 0.76 μM, 24 h
Experimental: The MDA-MB-231 cells (10^5/well) were incubated with compound 5 at its IC50. After 24 h, the cells were washed twice with PBS, then collected and fixed with ice-cold ethanol 70% (v/v). The cells were re-suspended with 0.1 mg/mL RNase, stained with […] PI and examined using flow cytometry (FACScalibur-Becton Dickinson).

T1 sequence (P00533 25-1210): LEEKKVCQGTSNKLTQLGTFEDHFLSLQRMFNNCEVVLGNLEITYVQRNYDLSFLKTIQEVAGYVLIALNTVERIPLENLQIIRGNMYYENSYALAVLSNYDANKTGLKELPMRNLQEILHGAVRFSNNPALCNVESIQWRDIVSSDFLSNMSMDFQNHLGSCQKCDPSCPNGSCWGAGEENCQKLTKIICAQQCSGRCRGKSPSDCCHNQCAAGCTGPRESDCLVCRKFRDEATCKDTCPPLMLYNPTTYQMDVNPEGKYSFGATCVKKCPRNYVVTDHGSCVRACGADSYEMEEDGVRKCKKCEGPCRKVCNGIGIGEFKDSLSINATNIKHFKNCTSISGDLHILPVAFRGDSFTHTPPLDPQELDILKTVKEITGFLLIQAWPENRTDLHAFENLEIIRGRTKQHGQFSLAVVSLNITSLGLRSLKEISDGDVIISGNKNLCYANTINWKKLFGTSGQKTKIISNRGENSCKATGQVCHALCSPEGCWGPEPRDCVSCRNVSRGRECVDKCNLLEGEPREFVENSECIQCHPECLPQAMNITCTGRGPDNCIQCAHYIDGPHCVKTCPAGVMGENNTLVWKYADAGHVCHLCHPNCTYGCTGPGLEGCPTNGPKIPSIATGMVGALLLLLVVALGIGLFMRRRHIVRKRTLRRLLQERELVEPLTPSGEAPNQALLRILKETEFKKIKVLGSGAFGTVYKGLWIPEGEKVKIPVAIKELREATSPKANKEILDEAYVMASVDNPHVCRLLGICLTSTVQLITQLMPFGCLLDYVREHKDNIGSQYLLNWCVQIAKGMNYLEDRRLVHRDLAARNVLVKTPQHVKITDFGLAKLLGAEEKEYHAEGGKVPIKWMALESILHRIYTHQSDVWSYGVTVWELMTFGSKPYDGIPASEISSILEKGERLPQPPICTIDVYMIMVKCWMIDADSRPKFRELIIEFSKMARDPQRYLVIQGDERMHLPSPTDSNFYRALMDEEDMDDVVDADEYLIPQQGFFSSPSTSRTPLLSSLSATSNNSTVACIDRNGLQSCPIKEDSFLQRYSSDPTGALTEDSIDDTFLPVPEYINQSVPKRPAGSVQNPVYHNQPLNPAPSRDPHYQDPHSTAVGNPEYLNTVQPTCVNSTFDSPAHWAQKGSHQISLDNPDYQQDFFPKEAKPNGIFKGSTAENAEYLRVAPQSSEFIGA

**Q.** Which results are given for `CC(Nc1nc2ccccc2c(=O)n1N)C(O)c1ccccc1` (stereo not drawn) [Compound 11, 3-amino-2-(1-hydroxy-1-phenylpropan-2-ylamino)quinazolin-4(3H)-one]?
**A.** IC50 (MCF-7 [1]): 39.42 ± 0.3 µM; IC50 (HCT-116 [2]): 44.15 ± 0.22 µM; melting point: 147.5 °C; IC50 (HepG-2 [3]): 33.65 ± 0.26 µM; IC50 (MDA-MB-231 [4]): 16.39 ± 0.06 µM; IC50 (EGFR): 3.87 ± 0.11 µM

**Q.** With `Nn1c(=S)[nH]c2ccccc2c1=O` [Compound 6, 3-Amino-2-thioxo-2,3-dihydroquinazolin-4(1H)-one] as the compound, how does the IC50 [5] read?
**A.** 49.2 ± 1.52 µM

**Q.** And the IC50 (MCF-7 [6])?
**A.** 4.26 ± 0.01 µM

**Q.** What about the IC50 (HCT-116 [7]) of the same compound?
**A.** 6.98 ± 0.25 µM

**Q.** What about the IC50 (MCF-7 [1]) of the same compound?
**A.** 7.23 ± 0.07 µM

**Q.** And the “Selectivity index (SI) MCF-7” value (MCF-7 [1])?
**A.** 6.81

**Q.** What about the IC50 (HCT-116 [2]) of the same compound?
**A.** 10.6 ± 0.19 µM

**Q.** What about the “Selectivity index (SI) HCT-116” value (HCT-116 [2]) of the same compound?
**A.** 4.64

**Q.** And the melting point?
**A.** 261.2 °C

**Q.** What about the IC50 (HepG-2 [3]) of the same compound?
**A.** 17.6 ± 0.15 µM

**Q.** And the IC50 (MDA-MB-231 [4])?
**A.** 1.6 ± 0.01 µM

**Q.** And the “Selectivity index (SI) MDA-MB-231” value (MDA-MB-231 [4])?
**A.** 30.75

**Q.** And the IC50 (EGFR)?
**A.** 2.13 ± 0.21 µM

**Q.** What about the IC50 (MDA-MB-231 [8]) of the same compound?
**A.** 1.04 ± 0.04 µM

**Q.** And the IC50 (HepG-2 [9])?
**A.** 14.26 ± 0.11 µM

**Q.** With `CC1Nn2c(nc3ccccc3c2=O)OC1c1ccccc1` (stereo not drawn) [Compound 9, 3-Methyl-2-phenyl-3,4-dihydro-[1,3,4]oxadiazino[2,3-b]quinazolin-6(2H)-one] as the compound, how does the IC50 (MCF-7 [1]) read?
**A.** > 100 µM

**Q.** What about the IC50 (HCT-116 [2]) of the same compound?
**A.** 90.54 ± 0.73 µM

**Q.** And the IC50 (HepG-2 [3])?
**A.** > 100 µM

**Q.** What about the IC50 (MDA-MB-231 [4]) of the same compound?
**A.** 84.15 ± 0.62 µM

**Q.** And the IC50 (EGFR)?
**A.** 9.78 ± 0.31 µM

**Q.** With `CC(Nc1nc2ccccc2c(=O)n1C(C)C(O)c1ccccc1)C(O)c1ccccc1` (stereo not drawn) [Compound 18, 3-(1-hydroxy-1-phenylpropan-2-yl)-2-(1-hydroxy-1-phenylpropan-2-ylamino)quinazolin-4(3H)-one] as the compound, how does the IC50 (MCF-7 [1]) read?
**A.** 62.59 ± 0.18 µM

**Q.** And the IC50 (HCT-116 [2])?
**A.** 44.9 ± 0.52 µM

**Q.** What about the IC50 (HepG-2 [3]) of the same compound?
**A.** 50 ± 0.13 µM

**Q.** And the IC50 (MDA-MB-231 [4])?
**A.** 62.94 ± 0.1 µM

**Q.** What about the IC50 (EGFR) of the same compound?
**A.** 0.99 ± 0.04 µM

**Q.** Which results are given for `CC1Nn2c(nc3ccccc3c2=O)SC1c1ccccc1` (stereo not drawn) [Compound 10, 3-methyl-2-phenyl-3,4-dihydro-[1,3,4]thiadiazino[2,3-b]quinazolin-6(2H)-one]?
**A.** IC50 (MCF-7 [1]): 37.31 ± 0.29 µM; IC50 (HCT-116 [2]): 46.3 ± 0.63 µM; IC50 (HepG-2 [3]): 35.6 ± 0.36 µM; IC50 (MDA-MB-231 [4]): 21.86 ± 0.04 µM; IC50 (EGFR): 3.09 ± 0.2 µM

**Q.** Which results are given for `CSc1nc2ccccc2c(=O)n1C(C)C(O)c1ccccc1` (stereo not drawn) [Compound 5, 3-(1-Hydroxy-1-phenylpropan-2-yl)-2-(methylthio)quinazolin-4(3H)-one]?
**A.** IC50 [10]: 1.53 to 5.76 µM; IC50 [5]: 61.9 ± 2.14 µM; IC50 (MCF-7 [6]): 2.35 ± 0.18 µM; Apoptotic assay % Early (MDA-MB-231 cells [11]): 7.36%; Apoptotic assay % Late (MDA-MB-231 cells [11]): 11.74%; Apoptotic assay % Necrosis (MDA-MB-231 cells [11]): 3.84%; Apoptotic assay % Total (MDA-MB-231 cells [11]): 22.94%; apoptosis over the control (MDA-MB-231 cells [11]): more than 12 folds; IC50 (HCT-116 [7]): 2.28 ± 0.41 µM; IC50 [12]: < 5 µM; IC50 (MCF-7 [1]): 5.43 ± 0.14 µM; Selectivity index (SI) MCF-7 (MCF-7 [1]): 11.39; IC50 (HCT-116 [2]): 5.76 ± 0.11 µM; Selectivity index (SI) HCT-116 (HCT-116 [2]): 10.74; melting point: 121.5 °C; IC50 (HepG-2 [3]): 4.14 ± 0.03 µM; Selectivity index (SI) HepG-2 (HepG-2 [3]; relative to MCF-10A normal cells): 14.93; IC50 (MDA-MB-231 [4]): 1.53 ± 0.01 µM; Selectivity index (SI) MDA-MB-231 (MDA-MB-231 [4]): 40.42; % G2-M (MDA-MB-231 cells [13]): 40.39%; % Pre-G1 (MDA-MB-231 cells [13]): 19.23%; % S (MDA-MB-231 cells [13]): 34.84%; %G0-G1 (MDA-MB-231 cells [13]): 24.77%; rise of percentage of cells at pri-G1 phase over control (MDA-MB-231 cells [13]): 10 folds; IC50 (EGFR): 0.76 ± 0.1 µM; IC50 (MDA-MB-231 [8]): 0.78 ± 0.15 µM; IC50 (HepG-2 [9]): 2.34 ± 0.23 µM

**Q.** Which results are given for `CCOc1nc2ccccc2c(=O)n1N` [Compound 13, 3-amino-2-ethoxyquinazolin-4(3H)-one]?
**A.** IC50 (MCF-7 [1]): > 100 µM; IC50 (HCT-116 [2]): > 100 µM; IC50 (HepG-2 [3]): > 100 µM; IC50 (MDA-MB-231 [4]): 81.43 ± 0.27 µM; IC50 (EGFR): 8.35 ± 0.32 µM

**Q.** Which IC50 (MCF-7 [1]) does the source give for `CC1C(c2ccccc2)Sc2nc3ccccc3c(=O)n21` (stereo not drawn) [Compound 8, 3-Methyl-2-phenyl-2H-thiazolo[2,3-b]quinazolin-5(3H)-one] here?
**A.** 70.1 ± 0.87 µM

**Q.** What about the IC50 (HCT-116 [2]) of the same compound?
**A.** 49.22 ± 0.49 µM

**Q.** And the IC50 (HepG-2 [3])?
**A.** 47.32 ± 0.47 µM

**Q.** What about the IC50 (MDA-MB-231 [4]) of the same compound?
**A.** 38.19 ± 0.38 µM

**Q.** And the IC50 (EGFR)?
**A.** 3.74 ± 0.17 µM
